Experimental data as given in patent publication US20090035876A1, “Electrochemical Assay” (Inverness Medical Switzerland GMBH, priority 2005, published 2009).

What was measured:
[1] = molecular target: human serum albumin (HSA) (Homo sapiens, UniProt P02768); conditions: probe 25 μM, HSA 500 μM, cyclic voltammetry
Description: Cyclic voltammetry was used to measure the concentration of the ferrocene labelled fatty acid probe with and without the presence of HSA allowing percentage bound to be calculated.

[2] = Photolysis of the UV-cleavable ferrocene molecule in solution, followed by TLC; format: physicochemical; conditions: UV 365 nm, methanolic/PBS solution, 2.18 mM
Description: The cleavage study was followed by Thin Layer Chromatography (TLC) after irradiation for a definite time of a methanolic/PBS solution of the UV-cleavable ferrocene 9 (FIG. 3). • After 2 minutes of irradiation, the appearance of two new products was observed; One of them corresponding to the ferrocene product 8 (on the base line), the other one corresponding probably to the nitroso-derivative 10 just under the front line). • Under the irradiation conditions used, the Uv-cleavable ferrocene molecule was completely cleaved in less than 6 minutes.
To a solution of UV-cleavable ferrocene 9 (0.7 mg, 1.09*10^−6 mol) dissolved in 250 μl of methanol was added 250 μl of PBS. 30 μl of this solution was irradiated using a UV model B100A with a wavelength of 365 nm and an intensity of 8,900 μW/cm^2 at 10″. The UV was applied at approximately 15 cm from the solution.
The cleavage was followed by TLC every two minutes. Eluent used: Ethyl acetate/hexane (80/20) and DCM/MeOH/Et3N (85/10/5).

Chain of human serum albumin (HSA) (P02768 25-609): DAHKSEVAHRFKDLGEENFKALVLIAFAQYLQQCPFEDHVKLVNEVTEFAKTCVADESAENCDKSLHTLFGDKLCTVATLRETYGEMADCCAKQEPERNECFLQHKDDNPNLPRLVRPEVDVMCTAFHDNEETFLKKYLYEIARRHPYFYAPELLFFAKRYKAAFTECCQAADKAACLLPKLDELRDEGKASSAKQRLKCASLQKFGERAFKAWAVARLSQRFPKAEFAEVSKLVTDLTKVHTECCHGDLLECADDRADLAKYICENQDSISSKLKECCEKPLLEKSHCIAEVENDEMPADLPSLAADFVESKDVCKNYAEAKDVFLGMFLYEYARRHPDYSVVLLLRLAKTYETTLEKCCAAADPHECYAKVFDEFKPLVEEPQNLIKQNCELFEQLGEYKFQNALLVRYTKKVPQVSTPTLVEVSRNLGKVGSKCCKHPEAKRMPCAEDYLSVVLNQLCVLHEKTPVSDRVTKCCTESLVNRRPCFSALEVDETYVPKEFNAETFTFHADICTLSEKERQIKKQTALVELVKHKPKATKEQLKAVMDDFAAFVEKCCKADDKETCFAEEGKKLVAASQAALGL

Row | Molecule | percentage bound to HSA [1] [%] | irradiation time until completely cleaved [2]
1 | OC[c-]1cccc1.[Fe+2].c1cc[cH-]c1 [ferrocene methanol] | 50 | 
2 | Thioacetic acid S—[3-(1-{2-[2-(2-ferrocenoylamino-ethoxy)-ethoxy]-ethylcarbamoyloxy}-ethyl)-4-nitro-benzyl]ester [UV-cleavable ferrocene molecule 9] |  | less than 6 minutes
